In general, pKd refers to −log10 of the Kd, conventionally taken in molar units.

31 compounds from BindingDB's records for patent US20240101552 (Shanghai Pharmaceuticals Holding Co., 2024) can be followed below.

pKd: −log10 of the molar value.

The assay deals with T1, LanC-like protein 2 (Homo sapiens, UniProt Q9NS86).
T1 sequence (Q9NS86 whole entry): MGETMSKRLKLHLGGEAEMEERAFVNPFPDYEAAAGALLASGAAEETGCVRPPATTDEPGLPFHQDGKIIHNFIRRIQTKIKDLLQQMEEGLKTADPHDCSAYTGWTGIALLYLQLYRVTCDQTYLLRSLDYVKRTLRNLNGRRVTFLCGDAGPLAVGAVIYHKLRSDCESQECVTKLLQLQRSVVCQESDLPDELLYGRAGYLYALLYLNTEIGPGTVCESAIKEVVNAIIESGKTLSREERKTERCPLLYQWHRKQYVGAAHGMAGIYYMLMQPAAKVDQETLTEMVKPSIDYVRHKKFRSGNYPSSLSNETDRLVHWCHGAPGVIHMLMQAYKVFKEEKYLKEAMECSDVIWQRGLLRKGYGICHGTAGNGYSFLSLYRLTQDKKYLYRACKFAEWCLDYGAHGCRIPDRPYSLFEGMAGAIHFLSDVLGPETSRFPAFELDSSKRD
The experiment in a line: Receptor Binding Assay. On the procedure: 1. […] The kinetic parameters of small molecules BT-11 and L-1 to 60 (analytes) binding to LANCL2 (ligand) were determined using BIACORE S200. Data were generated in triplicate in a dose-dependent manner (5-8 titration points) and analyzed to determine binding models (Langmuir, conformational shifts, etc.), real-time association and dissociation constants, and equilibrium dissociation constants. SPR technology allows the validation of specific LANCL2-phytochemical interactions as well as an increased insight into the gold standard of binding mechanisms and rates. Experiments were performed on carboxymethyl polydextrose (CM5) sensor chips by amine-coupled covalent attachment of LANCL2. Data were analyzed with BIACORE S200T200 evaluation software (version 1), so as to determine affinity binding constants (KD) using a 1:1 binding model.

Consider `O=C(C1CCCN1C(=O)c1cccc(-c2cn3ccccc3n2)c1)N1CC2CN(c3ccc([N+](=O)[O-])cc3)CC2C1` [US20240101552, Compound L-39], for which the pKd was 5.20. In the case of `O=C(N[C@H]1[C@@H]2CN(C(=O)c3cccc(Nc4ccccc4)n3)C[C@@H]21)c1ccnc(Nc2ccccc2)n1` [US20240101552, Compound L-103] it was 4.62; in that of `O=C(c1cccc(-c2nc3ccccc3[nH]2)n1)N1CC2CN(C(=O)c3ccnc(Nc4ccccc4)n3)CC2C1` [US20240101552, Compound L-24], 4.24; in that of `O=C(c1cccc(-c2nc3ccccc3[nH]2)n1)N1CCC2(CC1)CCN(C(=O)c1ccnc(N3CCOCC3)n1)CC2` [US20240101552, Compound L-15], 5.64. On to `O=C(c1cccc(Nc2ccccc2)n1)N1CCC2(CCN(C(=O)c3cccc(-c4nc5ccccc5[nH]4)n3)CC2)C1` [US20240101552, Compound L-61], for which the pKd was 4.63. This pKd is 1.01 log units lower than that of the compound before. Regarding `O=C(c1cccc(-c2cn3ccccc3n2)c1)N1CCC2(CC1)CCN(C(=O)c1cccc(-c3nc4ccccc4[nH]3)n1)CC2` [US20240101552, Compound L-3], the pKd was 5.16. Compared with the last compound, the pKd is 0.53 log units higher.

On to `O=C(c1ccnc(Nc2ccccc2)n1)N1CCC2(CC1)CCN(C(=O)c1ccnc(Nc3ccccn3)n1)CC2` [US20240101552, Compound L-98], for which the pKd was 4.91. As to `O=C(c1cccc(-c2cn3ccccc3n2)c1)N1CC2CN(C(=O)c3ccnc(Nc4ccccc4)n3)CC2C1` [US20240101552, Compound L-43], the pKd was 4.31. As to `O=C(c1cccc(-c2cn3ccccc3n2)c1)N1CC2CC1CN2C(=O)c1cccc(-c2nc3ccccc3[nH]2)n1` [US20240101552, Compound L-4], the pKd is 4.40. With `O=C(c1cccc([N+](=O)[O-])c1)N1CCC2(CC1)CCN(C(=O)c1cccc(-c3nc4ccccc4[nH]3)n1)CC2` [US20240101552, Compound L-40], the pKd is 5.49. For `O=C(NC1CCN(C(=O)c2ccnc(Nc3ccccc3)n2)CC1)c1ccnc(Nc2ccccn2)n1` [US20240101552, Compound L-99], the pKd was 5.27. Compared with the last compound, the pKd is 0.22 log units lower. `O=C(NC1CCN(C(=O)c2cccc(Nc3ccccc3)n2)CC1)c1cccc(Nc2ccccc2)n1` [US20240101552, Compound L-114]: the pKd was 4.97. This pKd lies 0.30 log units lower than the previous one. `O=C(Nc1cccc(-c2cn3ccccc3n2)c1)N1CCN(C(=O)c2cccc(-c3nc4ccccc4[nH]3)n2)CC1` [US20240101552, Compound L-118] showed a pKd of 5.06. `O=C(c1cccc(Nc2ccccc2)n1)N1CC2CN(C(=O)c3ccnc(Nc4ccccc4)n3)CC2C1` [US20240101552, Compound L-102] had a pKd of 4.53. This pKd is 0.53 log units lower than that of the compound before. For the compound `O=C(NC1CCN(C(=O)c2cccc(-c3nc4ccccc4[nH]3)n2)CC1)c1cccc(-c2cn3ccccc3n2)c1` [US20240101552, Compound L-5], the pKd was 4.77. Consider `O=C(Nc1ccccc1NC(=O)c1cccc(-c2cn3ccccc3n2)c1)c1cccc(-c2cn3ccccc3n2)c1` [US20240101552, Compound L-1], for which the pKd is 5.35.

For `O=C(NC1CCN(C(=O)c2cccc(-c3nc4ccccc4[nH]3)n2)CC1)c1cccc([N+](=O)[O-])c1` [US20240101552, Compound L-38], the pKd is 5.04. Against the preceding compound, the pKd is 0.31 log units lower.

In turn, `O=C(c1cccc(-c2cn3ccccc3n2)c1)N1CC2CN(C(=O)c3cccc(-c4nc5ccccc5[nH]4)n3)CC2C1` [US20240101552, Compound L-55] gave a pKd of 4.77. Against the preceding compound, the pKd is 0.27 log units lower.

Turning to `O=C(NC1C2CN(C(=O)c3cccc(-c4cn5ccccc5n4)c3)CC21)c1cccc(-c2nc3ccccc3[nH]2)n1` [US20240101552, Compound L-2], the pKd was 6.14. `O=C(c1cccc(-c2nc3ccccc3[nH]2)n1)N1CC2CN(C(=O)c3ccnc(N4CCOCC4)n3)CC2C1` [US20240101552, Compound L-16] had a pKd of 4.07. Against the preceding compound, the pKd is 2.07 log units lower. In the case of `O=C(NC1CCN(C(=O)c2cccc(-c3nc4ccccc4[nH]3)n2)CC1)c1cccc(Nc2ccccc2)n1` [US20240101552, Compound L-47] it was 4.88; in that of `O=C(c1cccc([N+](=O)[O-])c1)N1CC2CN(C(=O)c3cccc(-c4nc5ccccc5[nH]4)n3)CC2C1` [US20240101552, Compound L-41], 4.56. Compound `O=C(c1ccnc(Nc2ccccn2)c1)N1CC2CN(C(=O)c3cccc(-c4nc5ccccc5[nH]4)n3)CC2C1` [US20240101552, Compound L-53] had a pKd of 4.44. The pKd values of the last two compounds are within 0.2 log units of each other. `O=C(c1cccc(-c2nc3ccccc3[nH]2)n1)N1CC2CN(C(=O)c3cccc(-c4nc5ccccc5[nH]4)n3)CC2C1` [US20240101552, Compound L-10] gave a pKd of 4.74.

`O=C(NC1C2CN(C(=O)c3cccc(-c4nc5ccccc5[nH]4)n3)CC21)c1ccnc(Nc2ccccn2)n1` [US20240101552, Compound L-25]: the pKd is 5.70.

Compound `O=C(N[C@H]1[C@@H]2CN(C(=O)c3cccc(Nc4ccccc4)n3)C[C@@H]21)c1cccc(-c2cn3ccccc3n2)c1` [US20240101552, Compound L-90] gave a pKd of 5.02. In the case of `O=C(c1cccc(-c2nc3ccccc3[nH]2)n1)N1CC2CN(C(=O)c3ccnc(Nc4ccccn4)n3)CC2C1` [US20240101552, Compound L-26] it was 4.18. Then `O=C(N[C@H]1[C@@H]2CN(C(=O)c3n[nH]c4ccccc34)C[C@@H]21)c1cccc(-c2cn3ccccc3n2)c1` [US20240101552, Compound L-106], with 5.36; and `O=C(c1cccc(Nc2ccccc2)n1)N1CCC2(CC1)CCN(C(=O)c1cccc(-c3nc4ccccc4[nH]3)n1)CC2` [US20240101552, Compound L-45], with 5.08. The compound `O=C(N[C@H]1[C@@H]2CN(C(=O)c3cccc(-c4cn5ccccc5n4)c3)C[C@@H]21)c1cccc(-c2cn3ccccc3n2)c1` [US20240101552, Compound L-89] showed a pKd of 5.60. In the case of `O=C(N[C@H]1[C@@H]2CN(C(=O)c3cccnc3Oc3ccccc3)C[C@@H]21)c1cccc(-c2cn3ccccc3n2)c1` [US20240101552, Compound L-105], the pKd is 4.76.
